Measured values taken from US6727265B2, “Phenoxyethyl-thiourea-pyridine compounds and their use for treatment of HIV-infections” (Parker Hughes Institute, priority 2000, dated 2004).
Where two headings read alike, the source gives them in different places.

Legend:
HIV-1 strain HTLVIIIB = test: anti-HIV activity: inhibition of replication of HIV-1 strain HTLVIIIB in PBMC; type: cell-based; conditions: for inhibition at 1 µM: at concentrations ≧1 μM; for IC50: read-out: IC50 [HTLVHIB]
cytotoxicity (CC50) = type: cell-based; conditions: CC50 values
[1] = molecular target: purified recombinant HIV RT (Human immunodeficiency virus type 1 group M subtype B, UniProt P03366); test: biochemical
[2] = Human immunodeficiency virus 1, PBMC
[3] = Human immunodeficiency virus 1, peripheral blood mononuclear cells (PBMC) from healthy volunteer donors

Row | SMILES | inhibition at 1 µM (HIV-1 strain HTLVIIIB; [2]) [%] | IC50 (HIV-1 strain HTLVIIIB; [3]) [µM] | CC (cytotoxicity (CC50)) [µM] | IC50 [1] [µM] | melting point [°C] | IC50 (HIV-1 strain HTLVIIIB; [2]) [µM]
1 | S=C(NCCOc1ccccc1)Nc1ccccn1 [II, N-[2-(Phenoxy)ethyl]-N′-[2-(pyridyl)]thiourea] | 100 | 0.005 | 55 | 10.1 | – | –
2 | S=C(NCCOc1ccccc1)Nc1ccc(Cl)cn1 [III, N -[2-(Phenoxy)ethyl]-N′-[2-(5-chloropyridyl)]thiourea] | 100 | 0.004 | >100 | 1.5 | – | –
3 | S=C(NCCOc1ccccc1)Nc1ccc(Br)cn1 [IV, N-[2-(Phenoxy)ethyl]-N′-[2-(5-bromopyridyl)]thiourea] | 100 | 0.005 | 92 | 1.5 | 162 to 163 | –
4 | S=C(NCCc1ccc(Cl)cc1)Nc1ccc(Br)cn1 [V, reference compound] | – | – | – | 2.5 | – | –
5 | Oc1ccc(CCNC(=S)Nc2ccc(Br)cn2)cc1 [VII, reference compound] | – | – | >100 | 87.7 | – | 3.07
